# Assay results from patent publication US12157730B2, “Heteroaryl derivative, method for producing same, and pharmaceutical composition comprising same as effective component” (VORONOI INC., priority 2019, dated 2024).
# Target: T1, Ba/F3 cell EGFR Exon20 ins NPH (Homo sapiens, UniProt P00533, INS773NPH)
# T1 construct: expressed in transfected cells; host or cells: Ba/F3
# Assay: Ba/F3 cell proliferation suppression, EGFR Exon20 ins NPH
# Assay type: cell-based
# Conditions: GI50 class; Ba/F3 cell line with NPH inserted at Exon20 of EGFR; 72 hours
# Method in brief: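 Cells were seeded 24 h before dosing and then treated for 72 hours with compound at final concentrations of 0.3 nM to 50 um. Live cells were measured by CellTiter-Glo luminescence, and GI50 values were derived from growth ratio relative to control across three repeats.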
row,Compound,Ba/F3 (NPH) Activity
1,"C=CC(=O)Nc1cc(Nc2cc(N3OCC[C@@H]3c3cc(F)cc(F)c3)ncn2)c(OC)cc1N1CCC(N2CCN(C)CC2=O)CC1 [compound 722, N-(5-((6-((R)-3-(3,5-difluorophenyl)isoxazolidine-2-yl)pyrimidine-4-yl)amino)-4-methoxy-2-(4-(4-methyl-2-oxopiperazine-1-yl)piperidine-1-yl)phenyl)acrylamide]",B (50 nM ≤ GI50 < 500 nM)
2,"C=CC(=O)Nc1cc(Nc2cc(N3OCC[C@@H]3Cc3ccc(C(F)(F)F)cc3)ncn2)c(OC)cc1N1CCC(N2CCN(C3CC3)CC2)CC1 [compound 1050, N-(2-(4-(4-cyclopropylpiperazine-1-yl)piperidine-1-yl)-4-methoxy-5-((6-((S)-3-(4-(trifluoromethyl)benzyl)isoxazolidine-2-yl)pyrimidine-4-yl)amino)phenyl) acrylamide]",B (50 nM ≤ GI50 < 500 nM)
3,"C=CC(=O)Nc1cc(Nc2cc(N3OCC[C@@H]3c3cc(F)cc(F)c3)ncn2)c(OC)cc1N1CC[C@@H](CN(C)C)C1 [compound 625, N-(5-((6-((R)-3-(3,5-difluorophenyl)isoxazolidine-2-yl)pyrimidine-4-yl)amino)-2-((S)-3-((dimethylamino)methyl)pyrolidine-1-yl)-4-methoxyphenyl) acrylamide]",A (GI50 < 50 nM)
4,"C=CC(=O)Nc1cc(Nc2cc(N3OCC[C@@H]3c3ccc(F)cc3)ncn2)c(OC)cc1N1CCC(N2CCN(C3CCC3)CC2)CC1 [Example 76, N-(2-(4-(4-cyclobutylpiperazine-1-yl)piperidine-1-yl)-5-((6-((R)-3-(4-fluorophenyl)isoxazolidine-2-yl)pyrimidine-4-yl)amino)-4-methoxyphenyl) acrylamide]",A (GI50 < 50 nM)
5,"C=CC(=O)Nc1cc(Nc2cc(N3OCC[C@@H]3c3ccc(F)c(F)c3F)ncn2)c(OC)cc1N1CC[C@H](N2CCOCC2)C1 [compound 624, N-(4-methoxy-2-((S)-3-morpholinopyrolidine-1-yl)-5-((6-((R)-3-(2,3,4-trifluorophenyl)isoxazolidine-2-yl)pyrimidine-4-yl)amino)phenyl)acrylamide]",C (500 nM ≤ GI50 < 5000 nM)
6,"C=CC(=O)Nc1cc(Nc2cc(N3OCC[C@@H]3c3ccc4ccccc4c3)ncn2)c(OC)cc1N1CCC(N2C[C@@H]3C[C@H]2CO3)CC1 [compound 512, N-(2-(4-((1S,4S)-2-oxa-5-azabicyclo[2.2.1]heptane-5-yl)piperidine-1-yl)-4-methoxy-5-((6-((R)-3-(naphthalene-2-yl)isoxazolidine-2-yl)pyrimidine-4-yl)amino)phenyl)acrylamide]",A (GI50 < 50 nM)
7,"C=CC(=O)Nc1cc(Nc2cc(N3OCC[C@@H]3c3ccc(F)c(Cl)c3)ncn2)c(OC)cc1N1CCC(N2CCO[C@@H](C)C2)CC1 [compound 873, N-(5-((6-((R)-3-(3-chloro-4-fluorophenyl)isoxazolidine-2-yl)pyrimidine-4-yl)amino)-4-methoxy-2-(4-((S)-2-methylmorpholino)piperidine-1-yl)phenyl) acrylamide]",A (GI50 < 50 nM)
8,"C=CC(=O)Nc1cc(Nc2cc(N3OCC[C@@H]3c3ccc4ccccc4c3)ncn2)c(OC)cc1N1CCN(C)CC1 [compound 509, N-(4-methoxy-2-(4-methylpiperazine-1-yl)-5-((6-((R)-3-(naphthalene-2-yl)isoxazolidine-2-yl)pyrimidine-4-yl)amino)phenyl)acrylamide]",B (50 nM ≤ GI50 < 500 nM)
9,"C=CC(=O)Nc1cc(Nc2cc(N3OCC[C@@H]3Cc3cccc(N(C)C)c3)ncn2)c(OC)cc1N1CCC(N2CCN(C3CC3)[C@@H](C)C2)CC1 [compound 1045, N-(2-(4-((S)-4-cyclopropyl-3-methylpiperazine-1-yl)piperidine-1-yl)-5-((6-((S)-3-(3-(dimethylamino)benzyl)isoxazolidine-2-yl)pyrimidine-4-yl)amino)-4-methoxyphenyl) acrylamide]",B (50 nM ≤ GI50 < 500 nM)
